Test results taken from PubChem BioAssay (NCI).
Values joined by “and” are separate entries in the source; they are usually repeats but may differ in a detail not shown here. Equal entries are not always repeated.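 Briefly, cells in 96-well plates were exposed to five compound concentrations for 48 h, and endpoints were estimated by linear interpolation. Here, GI50 denotes the concentration required for 50% inhibition of growth. TGI is the concentration that stops growth completely.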

Key:
Experiment in all cases: NCI tumour cell line growth inhibition, 48 h
UACC-257 melanoma = tested on: UACC-257 melanoma
HT29 colon = tested on: HT29 colon
SN12C renal = tested on: SN12C renal
OVCAR-8 ovarian = tested on: OVCAR-8 ovarian
MCF7 breast = tested on: MCF7 breast
UACC-62 melanoma = tested on: UACC-62 melanoma
PC-3 prostate = tested on: PC-3 prostate
RPMI-8226 leukemia = tested on: RPMI-8226 leukemia
LOX IMVI melanoma = tested on: LOX IMVI melanoma
A549 NSCLC = tested on: A549 NSCLC
IGROV1 ovarian = tested on: IGROV1 ovarian
786-0 renal = tested on: 786-0 renal
CAKI-1 renal = tested on: CAKI-1 renal
NCI-H522 lung = tested on: NCI-H522 lung
HOP-92 NSCLC = tested on: HOP-92 NSCLC

SMILES	TGI (UACC-257 melanoma)	TGI (HT29 colon)	TGI (SN12C renal)	TGI (OVCAR-8 ovarian)	TGI (MCF7 breast) [µM]	TGI (UACC-62 melanoma)	TGI (PC-3 prostate) [µM]	TGI (RPMI-8226 leukemia)	TGI (LOX IMVI melanoma) [µM]	TGI (A549 NSCLC)	TGI (IGROV1 ovarian)	TGI (786-0 renal)	TGI (CAKI-1 renal)	TGI (NCI-H522 lung)	GI50 (UACC-257 melanoma)	TGI (HOP-92 NSCLC)	GI50 (NCI-H522 lung)	GI50 (HT29 colon) [µM]	GI50 (SN12C renal) [µM]
Cc1cccc(NC(=S)Nc2ccccc2Cl)n1	74.2 µM	> 100 µM	> 100 µM	73.7 µM	> 100	> 100 µM	> 100	> 100 µM	> 100	> 100 µM	> 100 µM	> 100 µM	96.4 µM	–	–	–	–	–	–
c1ccc(CSc2nc(N3CCOCC3)c3cn[nH]c3n2)cc1	29.9 µM	> 100 µM	37.7 µM	89.1 µM	> 100	30.3 µM	38.2	35.2 µM	44.1	> 100 µM	31.7 µM	> 100 µM	57.5 µM	33.1 µM	–	–	–	–	–
COC(=O)/C=c1/c2ccccc2n2nc3ccccc3c12	> 100 µM	> 100 µM	> 100 µM	> 100 µM	> 100	> 100 µM	> 100	> 100 µM	> 100	> 100 µM	> 100 µM	> 100 µM	> 100 µM	> 100 µM	–	–	–	–	–
COc1cccc(-c2cc(=O)c3c(C)ccnc3[nH]2)c1	–	> 100 µM	> 100 µM	> 100 µM	> 100	> 100 µM	> 100	11.8 µM	> 100	> 100 µM	> 100 µM	> 100 µM	–	0.226 µM	–	–	–	–	–
CC(C)=CCSC1CC2C(CC1(C)O)C2(C)C (centres undefined)	32.6 µM and 20.6 µM	29 µM and 28.2 µM	32 µM and 29.6 µM	34.3 µM and 27.1 µM	–	29.2 µM and 31.7 µM	–	48.5 µM and 61.6 µM	29.7	24.1 µM and 30.2 µM	31.3 µM and 33 µM	29.6 µM and 25.8 µM	28.3 µM and 25.5 µM	26.9 µM and 18.8 µM	18.3 µM and 7.13 µM	30.4 µM and 27 µM	13.3 µM and 4.38 µM	–	–
Cn1c(-c2cccs2)cc(-c2cccs2)c1-c1ccsc1	> 100 µM	> 100 µM	> 100 µM	> 100 µM	> 100	> 100 µM	> 100	> 100 µM	> 100	> 100 µM	–	> 100 µM	> 100 µM	–	–	> 100 µM	–	–	–
CC(C)C1OC(=O)/C=C/C=C/C=C/C=C/C=C/CC(O)CC(O)CC(O)CC(O)CC(O)CC(O)CC(O)CC(O)/C=C/C1C (centres undefined)	> 100 µM	> 100 µM	> 100 µM	> 100 µM	> 100	–	> 100	> 100 µM	> 100	> 100 µM	> 100 µM	> 100 µM	> 100 µM	–	–	> 100 µM	–	–	–
CCN(CC)C(=S)SS(=O)(=O)c1ccc([N+](=O)[O-])cc1	53.5 µM	64.7 µM	> 100 µM	42.5 µM	–	> 100 µM	–	48.8 µM	33.8	> 100 µM	–	32.4 µM	34.4 µM	–	24 µM	–	–	22	26.9
COc1ccc(C2S/C(=C\c3ccc(O)cc3)C(=O)N2NC(=O)Cc2ccccc2)cc1 (centres undefined)	> 100 µM	> 100 µM	> 100 µM	> 100 µM	–	> 100 µM	–	> 100 µM	> 100	> 100 µM	> 100 µM	> 100 µM	> 100 µM	> 100 µM	–	> 100 µM	–	–	–
COC(=O)c1csc(-c2nc(CCNC(=O)OC(C)(C)C)sc2Br)n1	> 100 µM	> 100 µM	> 100 µM	> 100 µM	> 100	> 100 µM	> 100	> 100 µM	–	> 100 µM	> 100 µM	> 100 µM	–	–	–	–	–	–	–
C[C@H](O)C1CC(Cn2nnc3c(N)ncnc32)C1(C)C (some centres undefined)	> 100 µM	–	> 100 µM	–	> 100	> 100 µM	> 100	–	> 100	> 100 µM	–	> 100 µM	> 100 µM	–	–	> 100 µM	–	–	–
CNC1=CC(=O)C2=C(C1=O)[C@H]1CC[C@]3(C)C(=O)CC[C@H]3[C@@H]1CC2	28.8 µM	–	> 52.7 µM	29.5 µM	47.5	31.9 µM	38.9	48.5 µM	23.7	49.9 µM	16.1 µM	38.3 µM	33.6 µM	–	–	25.7 µM	–	–	–
COC(=O)c1c(C)cccc1CC1Cc2c(C)cccc2C1=O (centres undefined)	72.9 µM	> 100 µM	> 100 µM	> 100 µM	–	89.9 µM	> 100	–	33.6	> 100 µM	> 100 µM	> 100 µM	> 100 µM	57.8 µM	–	70.9 µM	–	–	–
COc1cc(COC(=O)N2CCC2C(=O)O)c([N+](=O)[O-])cc1OC (centres undefined)	> 100 µM	> 100 µM	> 100 µM	> 100 µM	> 100	> 100 µM	> 100	> 100 µM	–	> 100 µM	> 100 µM	> 100 µM	–	–	–	> 100 µM	–	–	–
Cc1nnc2n1-c1ccccc1C(=S)N1CSCC21 (centres undefined)	> 100 µM	> 100 µM	> 100 µM	> 100 µM	> 100	> 100 µM	> 100	> 100 µM	> 100	> 100 µM	> 100 µM	> 100 µM	> 100 µM	> 100 µM	–	–	–	–	–
NC(=O)N1N=C2c3ccccc3SC[C@H]2[C@@H]1c1ccccc1	54 µM	38 µM	> 100 µM	65.9 µM	–	–	–	87.5 µM	32.4	> 100 µM	68.4 µM	> 100 µM	–	–	–	–	–	–	–
CC1(C)Oc2ccc3c(=O)cc(-c4ccc(F)cc4)oc3c2C1C(=O)O (centres undefined)	> 100 µM	> 100 µM	> 100 µM	> 100 µM	> 100	> 100 µM	> 100	–	–	> 100 µM	> 100 µM	> 100 µM	54.6 µM	> 100 µM	–	–	–	–	–
